Results from patent US8067424B2, “Selective inhibitors for cyclin-dependent kinases” (Emory University, priority 2007, dated 2011).
Like-named read-outs stand apart in the source and are kept apart here.

Key:
SR = conditions: for Mean Optical Densities / Percent Growth: SR
EKVX = conditions: for Mean Optical Densities / Percent Growth: EKVX
T-47D = conditions: for Mean Optical Densities / Percent Growth: T-47D
MOLT-4 = test: cells; conditions: Homo sapiens
IGROV1 = test: cells; conditions: Homo sapiens
OVCAR-8 = test: cells; conditions: Homo sapiens
SN12C = test: cells; conditions: Homo sapiens
[1] = tested on: RNA polymerase II phosphorylation (P-Ser-2, P-Ser-5); test: Inhibition of phosphorylation of RNA polymerase II (immunoblot, MCF-7 cells); format: cell-based; conditions: MCF-7 cells treated 4 hours
Experimental: MCF-7 breast cancer cells were treated with BS-181 or Roscovitine at the concentrations shown in FIG. 2 for 4 hours prior to harvesting of cells. […] Immunblotting for β-actin was used as loading control for protein content.

MAPKAP-K3 = MAPKAP-K3 (Homo sapiens, UniProt Q16644); test: Kinase screen: MAPKAP-K3 assay; format: biochemical; conditions: read-out: Mean Remaining Enzyme Activity (%)
Experimental: Generally, the same procedure was used for all assays. Since the total assay volume was 25.5 microliters, 0.5 microliters of inhibitors at 51× assay concentration were added to the plates before any other addition.
The basic procedure was to add 0.5 microliters inhibitor/control in DMSO to plate. Fifteen microliters of enzyme/substrate/buffer mix were added and incubated for 5 min. Ten microliters MgATP at the relevant concentration were added and incubated for 30 min. The assay was stopped by adding 5 microliters of 3% orthophosphoric acid. The assay was transferred to a p81 filter plate and read in a scintillation counter of 30 sec/well. Note that this assay procedure was not followed for MKK1, which instead involved a two-step assay, and PKC alpha, which required the addition of lipid vesicles.
MAPKAP-K3 assay: 5-20 mU of MAPKAP-K3 (diluted in 50 mM Tris (pH 7.5), 0.1 mM EGTA, 1 mg/ml BSA, 0.1%, b-Mercaptoethanol) was assayed against substrate peptide ([…]) (SEQ ID NO: 3) in a final volume of 25.5 μl containing 50 mM Tris (pH 7.5), 0.1 mM EGTA, 0.1%, b-Mercaptoethanol, 30 μM substrate peptide, 10 mM magnesium acetate and 0.02 mM [33P-g-ATP] (500-1000 cpm/pmole) and incubated for 30 mins at room temperature. Assays were stopped by addition of 5 μl of 0.5M (3%) orthophosphoric acid. Assays were harvested onto P81 Unifilter plates using a wash buffer of 50 mM orthophosphoric acid.

[2] = HOP-92, log10 concentration −4.0
[3] = HOP-92, log10 concentration −5.0
[4] = HOP-92, log10 concentration −6.0
[5] = HOP-92, log10 concentration −7.0
[6] = HOP-92, log10 concentration −8.0
[7] = NCI-H460, log10 concentration −4.0
[8] = NCI-H460, log10 concentration −5.0
[9] = NCI-H460, log10 concentration −6.0
[10] = NCI-H460, log10 concentration −7.0
[11] = NCI-H460, log10 concentration −8.0
[12] = SNB-19, log10 concentration −4.0
[13] = SNB-19, log10 concentration −5.0
[14] = SNB-19, log10 concentration −6.0
[15] = SNB-19, log10 concentration −7.0
[16] = SNB-19, log10 concentration −8.0
[17] = CAKI-1, log10 concentration −4.0
[18] = CAKI-1, log10 concentration −5.0
[19] = CAKI-1, log10 concentration −6.0
[20] = CAKI-1, log10 concentration −7.0
[21] = CAKI-1, log10 concentration −8.0
[22] = OVCAR-3, log10 concentration −4.0
[23] = OVCAR-3, log10 concentration −5.0
[24] = OVCAR-3, log10 concentration −6.0
[25] = OVCAR-3, log10 concentration −7.0
[26] = OVCAR-3, log10 concentration −8.0

MAPKAP-K3, sequence (Q16644 whole entry, species assumed): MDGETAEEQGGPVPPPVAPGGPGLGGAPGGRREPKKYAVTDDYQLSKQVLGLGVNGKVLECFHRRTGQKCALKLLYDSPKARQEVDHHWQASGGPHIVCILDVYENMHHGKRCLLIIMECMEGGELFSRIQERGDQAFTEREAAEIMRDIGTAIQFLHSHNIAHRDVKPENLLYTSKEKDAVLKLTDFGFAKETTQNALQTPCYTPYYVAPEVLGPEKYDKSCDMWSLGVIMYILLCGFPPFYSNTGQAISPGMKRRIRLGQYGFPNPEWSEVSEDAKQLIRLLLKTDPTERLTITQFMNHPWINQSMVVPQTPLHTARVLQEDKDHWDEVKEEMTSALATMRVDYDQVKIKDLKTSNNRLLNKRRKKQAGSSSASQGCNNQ

## CC(C)c1cnn2c(NCc3ccccc3)cc(N[C@@H](CO)[C@H](O)CO)nc12 [ICEC0318, (3S)-3-(7-(Benzylamino)-3-isopropylpyrazolo[1,5-a]pyrimidin-5-ylamino)butane-1,2,4-triol]
SR; SR (Leukemia)
  TGI: >1.00E−4
SR; log10 concentration −4.0
  Mean Optical Densities: 0.239
  Percent Growth: 7%
SR; log10 concentration −5.0
  Mean Optical Densities: 0.244
  Percent Growth: 8%
SR; log10 concentration −6.0
  Mean Optical Densities: 0.275
  Percent Growth: 16%
SR; log10 concentration −7.0
  Mean Optical Densities: 0.394
  Percent Growth: 45%
SR; log10 concentration −8.0
  Mean Optical Densities: 0.548
  Percent Growth: 83%
EKVX; EKVX (Non-Small Cell Lung Cancer)
  TGI: >1.00E−4
EKVX; log10 concentration −4.0
  Mean Optical Densities: 0.740
  Percent Growth: 4%
EKVX; log10 concentration −5.0
  Mean Optical Densities: 0.817
  Percent Growth: 9%
EKVX; log10 concentration −6.0
  Mean Optical Densities: 0.841
  Percent Growth: 11%
EKVX; log10 concentration −7.0
  Mean Optical Densities: 1.830
  Percent Growth: 83%
EKVX; log10 concentration −8.0
  Mean Optical Densities: 2.035
  Percent Growth: 98%
HOP-92; HOP-92 (Non-Small Cell Lung Cancer)
  TGI: >1.00E−4
HOP-92; [2]
  Mean Optical Densities: 0.594
  Percent Growth: 12%
HOP-92; [3]
  Mean Optical Densities: 0.612
  Percent Growth: 16%
HOP-92; [4]
  Mean Optical Densities: 0.645
  Percent Growth: 22%
HOP-92; [5]
  Mean Optical Densities: 0.981
  Percent Growth: 86%
HOP-92; [6]
  Mean Optical Densities: 1.050
  Percent Growth: 99%
NCI-H460; NCI-H460 (Non-Small Cell Lung Cancer)
  TGI: 1.71E−5
NCI-H460; [7]
  Mean Optical Densities: 0.094
  Percent Growth: −15%
NCI-H460; [8]
  Mean Optical Densities: 0.158
  Percent Growth: 5%
NCI-H460; [9]
  Mean Optical Densities: 0.181
  Percent Growth: 7%
NCI-H460; [10]
  Mean Optical Densities: 0.919
  Percent Growth: 80%
NCI-H460; [11]
  Mean Optical Densities: 1.138
  Percent Growth: 102%
SNB-19; SNB-19 (CNS Cancer)
  TGI: 4.89E−5
SNB-19; [12]
  Mean Optical Densities: 0.492
  Percent Growth: −2%
SNB-19; [13]
  Mean Optical Densities: 0.537
  Percent Growth: 4%
SNB-19; [14]
  Mean Optical Densities: 0.580
  Percent Growth: 9%
SNB-19; [15]
  Mean Optical Densities: 1.247
  Percent Growth: 84%
SNB-19; [16]
  Mean Optical Densities: 1.309
  Percent Growth: 91%
CAKI-1; CAKI-1 (Renal Cancer)
  TGI: >1.00E−4
CAKI-1; [17]
  Mean Optical Densities: 0.358
  Percent Growth: 2%
CAKI-1; [18]
  Mean Optical Densities: 0.372
  Percent Growth: 5%
CAKI-1; [19]
  Mean Optical Densities: 0.423
  Percent Growth: 18%
CAKI-1; [20]
  Mean Optical Densities: 0.631
  Percent Growth: 71%
CAKI-1; [21]
  Mean Optical Densities: 0.704
  Percent Growth: 90%
T-47D; T-47D (Breast Cancer)
  TGI: 2.55E−6
T-47D; log10 concentration −4.0
  Mean Optical Densities: 0.479
  Percent Growth: −12%
T-47D; log10 concentration −5.0
  Mean Optical Densities: 0.516
  Percent Growth: −5%
T-47D; log10 concentration −6.0
  Mean Optical Densities: 0.565
  Percent Growth: 3%
T-47D; log10 concentration −7.0
  Mean Optical Densities: 1.199
  Percent Growth: 94%
T-47D; log10 concentration −8.0
  Mean Optical Densities: 1.266
  Percent Growth: 103%
MOLT-4; MOLT-4
  GI50: 259 nM
MOLT-4; MOLT-4, read-out: LC50
  CC50: > 100000 nM
IGROV1; IGROV-1
  GI50: 210 nM
IGROV1; IGROV-1, read-out: LC50
  CC50: > 100000 nM
OVCAR-8; OVCAR-8
  GI50: 340 nM
OVCAR-8; OVCAR-8, read-out: LC50
  CC50: > 100000 nM
SN12C
  GI50: 327 nM
SN12C; read-out: LC50
  CC50: > 100000 nM
OVCAR-3; Homo sapiens, OVCAR-3
  GI50: 335 nM
OVCAR-3; Homo sapiens, OVCAR-3, read-out: LC50
  CC50: > 100000 nM
OVCAR-3; OVCAR-3 (Ovarian Cancer)
  TGI: >1.00E−4
OVCAR-3; [22]
  Mean Optical Densities: 0.313
  Percent Growth: 9%
OVCAR-3; [23]
  Mean Optical Densities: 0.317
  Percent Growth: 10%
OVCAR-3; [24]
  Mean Optical Densities: 0.306
  Percent Growth: 8%
OVCAR-3; [25]
  Mean Optical Densities: 0.700
  Percent Growth: 97%
OVCAR-3; [26]
  Mean Optical Densities: 0.795
  Percent Growth: 118%

## CC(C)c1cnn2c(NCc3ccccc3)cc(NCCCCCCCN)nc12 [BS-181]
[1]
  Inhibition of phosphorylation of RNA polymerase II: capable of inhibiting phosphorylation of RNAPolymerase II
MAPKAP-K3
  remaining activity at 10 µM: 119%
